Patent US12180193B2, “Accelerating fibrosarcoma protein degrading compounds and associated methods of use” (Arvinas Operations, Inc., priority 2020, dated 2024)

Key:
[1] = molecular target: T1, BRAF V600E (Homo sapiens, UniProt P15056, V600E); experiment: Cellular assay of target protein degradation, T-Rex 293 cells stably transfected with HA-BRAF_V600E (HA immunofluorescence, high content imaging); format: cell-based; conditions: T-Rex 293 HA-BRAF V600E; for DC50: half maximal degradation, read-out: BRaf V600E DC50; for Dmax: maximum degradation observed
T1 construct: expressed in transfected cells
T1 sequence (P15056 whole entry V600E): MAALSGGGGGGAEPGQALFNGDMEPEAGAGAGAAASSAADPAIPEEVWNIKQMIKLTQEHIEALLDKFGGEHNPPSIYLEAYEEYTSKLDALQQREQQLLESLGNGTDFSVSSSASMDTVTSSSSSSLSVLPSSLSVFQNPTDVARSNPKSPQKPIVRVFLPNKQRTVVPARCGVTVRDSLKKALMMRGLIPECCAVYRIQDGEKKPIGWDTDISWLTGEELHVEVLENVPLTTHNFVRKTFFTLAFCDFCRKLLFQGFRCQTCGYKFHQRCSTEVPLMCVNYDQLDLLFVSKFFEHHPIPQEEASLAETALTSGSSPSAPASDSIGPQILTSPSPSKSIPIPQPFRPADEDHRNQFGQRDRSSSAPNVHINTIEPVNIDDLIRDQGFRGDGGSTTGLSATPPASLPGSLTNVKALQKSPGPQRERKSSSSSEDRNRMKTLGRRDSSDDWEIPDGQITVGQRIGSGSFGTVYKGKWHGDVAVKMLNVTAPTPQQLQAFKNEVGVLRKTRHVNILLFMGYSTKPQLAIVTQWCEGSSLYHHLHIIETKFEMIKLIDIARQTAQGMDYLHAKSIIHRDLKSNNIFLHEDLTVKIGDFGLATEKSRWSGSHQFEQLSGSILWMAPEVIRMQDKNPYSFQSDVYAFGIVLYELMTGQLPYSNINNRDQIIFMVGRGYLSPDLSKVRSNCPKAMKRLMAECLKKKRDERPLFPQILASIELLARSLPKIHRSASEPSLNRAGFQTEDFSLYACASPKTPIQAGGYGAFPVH
Outline: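 Read-out is anti-HA immunofluorescence quantified by high-content imaging, giving half-maximal degradation concentration (DC50) and maximum degradation (Dmax, percent of control). Cells expressed the construct under 1 ng/mL doxycycline and received compound (1 μM to 0.1 nM final, 0.1% DMSO) for 24 h at 37 °C.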

[2] = molecular target: T2, BRAF G466V (Homo sapiens, UniProt P15056, G466V); experiment: Cellular assay of target protein degradation, T-Rex 293 cells stably transfected with HA-BRAF G466V (HA immunofluorescence, high content imaging); format: cell-based; conditions: T-Rex 293 HA-BRAF G466V; for DC50: half maximal degradation, read-out: BRaf G466V DC50; for Dmax: maximum degradation observed
T2 construct: expressed in transfected cells
T2 sequence (P15056 whole entry G466V): as the sequence (P15056 whole entry V600E) above, with G466V, E600V counted along it
Outline: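 First, stably transfected T-Rex 293 cells were plated with 0.75 ng/mL doxycycline and grown for 24 hours. Next, compound (final 30 nM to 3 pM, 0.1% DMSO) was added for another 24 hours at 37° C. Finally, cells were fixed, stained for HA and imaged.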

| SMILES | DC50 [1] [nM] | Dmax [1] [%] | DC50 [2] [nM] | Dmax [2] [%] |
| --- | --- | --- | --- | --- |
| O=C1CC[C@H](N2Cc3cc([C@@H](O)CCN4CCN(c5ccc(-c6cnc7[nH]cc(C(=O)c8c(F)ccc(NS(=O)(=O)N9CC[C@@H](F)C9)c8F)c7c6)cc5)CC4)c(F)cc3C2=O)C(=O)N1 [Compound 300, (3R)-N-{3-[5-(4-{4-[(3S)-3-{2-[(3S)-2,6-dioxopiperidin-3-yl]-6-fluoro-1-oxo-2,3-dihydro-1H-isoindol-5-yl}-3-hydroxypropyl]piperazin-1-yl}phenyl)-1H-pyrrolo[2,3-b]pyridine-3-carbonyl]-2,4-difluorophenyl}-3-fluoropyrrolidine-1-sulfonamide] | 50 to 500 | 35 to 70 | < 1 | 35 to 70 |
| O=C1CC[C@@H](NC(=O)c2ccc(N3CCC(CN4CCN(c5ccc(-c6cnc7[nH]cc(C(=O)c8c(F)ccc(NS(=O)(=O)N9CC[C@@H](F)C9)c8F)c7c6)cc5)CC4)CC3)cc2F)C(=O)N1 [Compound 340] | 50 to 500 | < 35 | 1 to 10 | 35 to 70 |
| O=C1CCC(N2Cc3cc(N4CCC(CN5CCN(c6ncc(-c7cnc8[nH]cc(C(=O)c9c(F)ccc(NS(=O)(=O)N%10CC[C@@H](F)C%10)c9F)c8c7)cn6)CC5)CC4)ccc3C2=O)C(=O)N1 (stereo partly drawn) [Compound 18, (3R)-N-[3-(5-{2-[4-({1-[2-(2,6-dioxopiperidin-3-yl)-1-oxo-2,3-dihydro-1H-isoindol-5-yl]piperidin-4-yl}methyl)piperazin-1-yl]pyrimidin-5-yl}-1H-pyrrolo[2,3-b]pyridine-3-carbonyl)-2,4-difluorophenyl]-3-fluoropyrrolidine-1-sulfonamide] | 50 to 500 | > 70 | < 1 | 35 to 70 |
| C[C@@H](c1ncc(-c2cnc3[nH]cc(C(=O)c4c(F)ccc(NS(=O)(=O)N5CC[C@@H](F)C5)c4F)c3c2)cn1)N1CCN(CC2CCN(c3ccc4c(c3)CN([C@H]3CCC(=O)NC3=O)C4=O)CC2)CC1 [Compound 289, (3R)-N-[3-(5-{2-[(1S)-1-{4-[(1-{2-[(3S)-2,6-dioxopiperidin-3-yl]-1-oxo-2,3-dihydro-1H-isoindol-5-yl}piperidin-4-yl)methyl]piperazin-1-yl}ethyl]pyrimidin-5-yl}-1H-pyrrolo[2,3-b]pyridine-3-carbonyl)-2,4-difluorophenyl]-3-fluoropyrrolidine-1-sulfonamide] | 50 to 500 | 35 to 70 | 10 to 30 | 35 to 70 |
| O=C1CCC(N2Cc3cc(N4CC5(CN(CCOc6ncc(-c7cnc8[nH]cc(C(=O)c9c(F)ccc(NS(=O)(=O)N%10CC[C@@H](F)C%10)c9F)c8c7)cn6)C5)C4)ccc3C2=O)C(=O)N1 (stereo partly drawn) [Compound 117, (3R)-N-(3-{5-[2-(2-{6-[2-(2,6-dioxopiperidin-3-yl)-1-oxo-2,3-dihydro-1H-isoindol-5-yl]-2,6-diazaspiro[3.3]heptan-2-yl}ethoxy)pyrimidin-5-yl]-1H-pyrrolo [2,3-b]pyridine-3-carbonyl}-2,4-difluorophenyl)-3-fluoropyrrolidine-1-sulfonamide] | 50 to 500 | 35 to 70 | 1 to 10 | > 70 |
| O=C1CC[C@@H](N2Cc3cc(N4CCC(CN5CCN(c6ccc(-c7cnc8[nH]cc(C(=O)c9c(F)ccc(NS(=O)(=O)N%10CC[C@@H](F)C%10)c9F)c8c7)cc6)CC5)CC4)ccc3C2=O)C(=O)N1 [Compound 224, (3R)-N-{3-[5-(4-{4-[(1-{2-[(3R)-2,6-dioxopiperidin-3-yl]-1-oxo-2,3-dihydro-1H-isoindol-5-yl}piperidin-4-yl)methyl]piperazin-1-yl}phenyl)-1H-pyrrolo [2,3-b]pyridine-3-carbonyl]-2,4-difluorophenyl}-3-fluoropyrrolidine-1-sulfonamide] | 5 to 50 | 35 to 70 | 1 to 10 | > 70 |

The remaining lines, values ahead:

| DC50 [1] [nM] | Dmax [1] [%] | DC50 [2] [nM] | Dmax [2] [%] | SMILES |
| --- | --- | --- | --- | --- |
| 5 to 50 | 35 to 70 | 10 to 30 | 35 to 70 | C[C@@]12CN(CC3CCN(c4ccc5c(c4)CN(C4CCC(=O)NC4=O)C5=O)CC3)C[C@]1(C)CN(c1ccc(-c3cnc4[nH]cc(C(=O)c5c(F)ccc(NS(=O)(=O)N6CC[C@@H](F)C6)c5F)c4c3)cc1)C2 (stereo partly drawn) [Compound 2, (3R)-N-[3-(5-{4-[(3aR,6aS)-5-({1-[2-(2,6-dioxopiperidin-3-yl)-1-oxo-2,3-dihydro-1H-isoindol-5-yl]piperidin-4-yl}methyl)-3a,6a-dimethyl-octahydropyrrolo[3,4-c]pyrrol-2-yl]phenyl}-1H-pyrrolo[2,3-b]pyridine-3-carbonyl)-2,4-difluorophenyl]-3-fluoropyrrolidine-1-sulfonamide] |
| 5 to 50 | 35 to 70 | 1 to 10 | > 70 | O=C1CC[C@@H](N2Cc3cc(C4CN(CC5CC6(C5)CN(c5ccc(-c7cnc8[nH]cc(C(=O)c9c(F)ccc(NS(=O)(=O)N%10CC[C@@H](F)C%10)c9F)c8c7)cc5)C6)C4)ccc3C2=O)C(=O)N1 [Compound 100, (3R)-N-{3-[5-(4-{6-[(3-{2-[(3R)-2,6-dioxopiperidin-3-yl]-1-oxo-2,3-dihydro-1H-isoindol-5-yl}azetidin-1-yl)methyl]-2-azaspiro[3.3]heptan-2-yl}phenyl)-1H-pyrrolo[2,3-b]pyridine-3-carbonyl]-2,4-difluorophenyl}-3-fluoropyrrolidine-1-sulfonamide] |
| 5 to 50 | 35 to 70 | 1 to 10 | > 70 | COc1cc(N2CC3(CN(CC4CCN(c5ccc(-c6cnc7[nH]cc(C(=O)c8c(F)ccc(NS(=O)(=O)N9CC[C@@H](F)C9)c8F)c7c6)cc5)CC4)C3)C2)ccc1C(=O)N[C@H]1CCC(=O)NC1=O [Compound 343, 4-(6-{[1-(4-{3-[2,6-difluoro-3-({[(3R)-3-fluoropyrrolidin-1-yl]sulfonyl}amino)benzoyl]-1H-pyrrolo[2,3-b]pyridin-5-yl}phenyl)piperidin-4-yl]methyl}-2,6-diazaspiro[3.3]heptan-2-yl)-N-[(3S)-2,6-dioxopiperidin-3-yl]-2-methoxybenzamide] |
| 5 to 50 | 35 to 70 | 1 to 10 | 35 to 70 | Cc1c(NS(=O)(=O)N2CC[C@@H](F)C2)ccc(F)c1C(=O)c1c[nH]c2ncc(-c3ccc(N4CCC(CN5CCC(c6ccc7c(c6)CN([C@H]6CCC(=O)NC6=O)C7=O)CC5)CC4)cc3)cc12 [Compound 253, (3R)-N-{3-[5-(4-{4-[(4-{2-[(3S)-2,6-dioxopiperidin-3-yl]-1-oxo-2,3-dihydro-1H-isoindol-5-yl}piperidin-1-yl)methyl]piperidin-1-yl}phenyl)-1H-pyrrolo [2,3-b]pyridine-3-carbonyl]-4-fluoro-2-methylphenyl}-3-fluoropyrrolidine-1-sulfonamide] |
| 5 to 50 | 35 to 70 | 1 to 10 | > 70 | O=C1CCC(N2Cc3cc(CCCCN4CCN(c5ccc(-c6cnc7[nH]cc(C(=O)c8c(F)ccc(NS(=O)(=O)N9CC[C@@H](F)C9)c8F)c7c6)cc5)CC4)ccc3C2=O)C(=O)N1 (stereo partly drawn) [Compound 325, (3R)-N-(3-{5-[4-(4-{4-[2-(2,6-dioxopiperidin-3-yl)-1-oxo-2,3-dihydro-1H-isoindol-5-yl]butyl}piperazin-1-yl)phenyl]-1H-pyrrolo[2,3-b]pyridine-3-carbonyl}-2,4-difluorophenyl)-3-fluoropyrrolidine-1-sulfonamide] |
| 5 to 50 | 35 to 70 | 1 to 10 | > 70 | O=C1CC[C@H](N2Cc3cc([C@@H](O)CCN4CCC(c5ccc(-c6cnc7[nH]cc(C(=O)c8c(F)ccc(NS(=O)(=O)N9CC[C@@H](F)C9)c8F)c7c6)cc5)CC4)ccc3C2=O)C(=O)N1 [Compound 71, (3R)-N-{3-[5-(4-{1-[(3S)-3-{2-[(3S)-2,6-dioxopiperidin-3-yl]-1-oxo-2,3-dihydro-1H-isoindol-5-yl}-3-hydroxypropyl]piperidin-4-yl}phenyl)-1H-pyrrolo[2,3-b]pyridine-3-carbonyl]-2,4-difluorophenyl}-3-fluoropyrrolidine-1-sulfonamide] |
| < 5 | 35 to 70 | < 1 | > 70 | O=C1CCC(N2Cc3cc(C4CCN(CC5CCN(c6ccc(-c7cnc8[nH]cc(C(=O)c9c(F)ccc(NS(=O)(=O)N%10CCCC%10)c9F)c8c7)cc6)CC5)CC4)ccc3C2=O)C(=O)N1 (centres unmarked) [Compound 177, N-[3-(5-{4-[4-({4-[2-(2,6-dioxopiperidin-3-yl)-1-oxo-2,3-dihydro-1H-isoindol-5-yl]piperidin-1-yl}methyl)piperidin-1-yl]phenyl}-1H-pyrrolo[2,3-b]pyridine-3-carbonyl)-2,4-difluorophenyl]pyrrolidine-1-sulfonamide] |
| 5 to 50 | 35 to 70 | 1 to 10 | > 70 | O=C1CCC(N2Cc3cc(N4CCN(CCc5ccc(-c6cnc7[nH]cc(C(=O)c8c(F)ccc(NS(=O)(=O)N9CC[C@@H](F)C9)c8F)c7c6)cc5)CC4)c(F)cc3C2=O)C(=O)N1 (stereo partly drawn) [Compound 152, (3R)-N-(3-{5-[4-(2-{4-[2-(2,6-dioxopiperidin-3-yl)-6-fluoro-1-oxo-2,3-dihydro-1H-isoindol-5-yl]piperazin-1-yl}ethyl)phenyl]-1H-pyrrolo[2,3-b]pyridine-3-carbonyl}-2,4-difluorophenyl)-3-fluoropyrrolidine-1-sulfonamide] |
